Measured values reported in ChEMBL document CHEMBL4385603 (J Med Chem, 2019).

Legend:
[1] = biological target: T1, Induced myeloid leukemia cell differentiation protein Mcl-1 (Homo sapiens, UniProt Q07820)
Description: Inhibition of FITC-labeled Bim peptide binding to His6-tagged MBP-fused Mcl-1 (unknown origin) by fluorescence polarization assay

[2] = biological target: T1, Induced myeloid leukemia cell differentiation protein Mcl-1; remark: listed apart in the source
Description: Inhibition of FITC-labeled Bim peptide binding to His6-tagged MBP-fused Mcl-1 (unknown origin) in presence of 1% fetal bovine serum by fluorescence polarization assay

[3] = biological target: T1, Induced myeloid leukemia cell differentiation protein Mcl-1; remark: listed apart in the source
Description: Inhibition of FITC-labeled Bak peptide binding to MBP-fused Mcl-1 (unknown origin) measured after 3 hrs by TR-FRET assay

[4] = biological target: T1, Induced myeloid leukemia cell differentiation protein Mcl-1; remark: listed apart in the source
Description: Inhibition of FITC-labeled Bak peptide binding to MBP-fused Mcl-1 (unknown origin) measured after 3 hrs in presence of 1% fetal bovine serum by TR-FRET assay

[5] = biological target: Bcl-2-like protein 1 (Homo sapiens, UniProt Q07817)
Description: Inhibition of FITC-labeled Bak peptide binding to Bcl-xL (unknown origin) after 0.5 hrs by fluorescence polarization assay

[6] = biological target: Apoptosis regulator Bcl-2 (Homo sapiens, UniProt P10415)
Description: Inhibition of FITC-labeled Bak peptide binding to Bcl-2 (unknown origin) after 0.5 hrs by fluorescence polarization assay

[7] = system: NCI-H929; assay: cells; details: Homo sapiens, NCI-H929, 72 h
Description: Antiproliferative activity against Mcl1-sensitive human NCI-H929 cells assessed as cell growth inhibition after 72 hrs by Celltiter-glo luminescence assay

[8] = system: K562; assay: cells; details: Homo sapiens, K562, 72 h
Description: Antiproliferative activity against Mcl1-insensitive human K562 cells assessed as cell growth inhibition after 72 hrs by Celltiter-glo luminescence assay

Chain of Apoptosis regulator Bcl-2 (P10415 whole entry): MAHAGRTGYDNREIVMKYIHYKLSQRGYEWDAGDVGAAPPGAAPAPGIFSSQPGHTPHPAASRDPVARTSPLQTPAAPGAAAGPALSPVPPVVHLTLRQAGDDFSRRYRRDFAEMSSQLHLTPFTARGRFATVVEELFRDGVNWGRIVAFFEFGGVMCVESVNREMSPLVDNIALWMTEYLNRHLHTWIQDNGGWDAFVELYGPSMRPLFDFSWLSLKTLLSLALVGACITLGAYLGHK
T1 sequence (Q07820 whole entry): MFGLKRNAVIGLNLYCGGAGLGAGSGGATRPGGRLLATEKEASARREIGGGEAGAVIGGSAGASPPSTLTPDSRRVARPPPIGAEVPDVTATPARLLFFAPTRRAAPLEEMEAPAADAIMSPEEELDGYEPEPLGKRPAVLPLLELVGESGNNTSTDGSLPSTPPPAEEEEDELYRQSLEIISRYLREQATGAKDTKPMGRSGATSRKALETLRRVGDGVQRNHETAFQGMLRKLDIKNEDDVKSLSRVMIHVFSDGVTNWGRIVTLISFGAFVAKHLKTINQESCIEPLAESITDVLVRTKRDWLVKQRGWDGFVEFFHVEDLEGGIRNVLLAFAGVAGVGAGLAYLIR
Chain of Bcl-2-like protein 1 (Q07817 whole entry): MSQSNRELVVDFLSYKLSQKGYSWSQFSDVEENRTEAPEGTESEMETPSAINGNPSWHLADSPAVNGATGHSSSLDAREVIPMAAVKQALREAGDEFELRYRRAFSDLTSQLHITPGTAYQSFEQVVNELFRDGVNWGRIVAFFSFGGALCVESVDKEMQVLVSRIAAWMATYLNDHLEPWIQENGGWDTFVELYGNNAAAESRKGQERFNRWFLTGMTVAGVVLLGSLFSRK

With `Cc1cc(OCCCc2c3n(c4c(-c5c(C)nn(C)c5C)c(Cl)ccc24)CCC(C)NC3=O)cc(C)c1Cl` (configuration not stated) the Ki [1] was 70 nM and the Ki [2] was > 200 nM.
In the case of `Cc1cc(OCCCc2c3n(c4c(-c5c(C)nn(C)c5C)c(Cl)ccc24)C[C@H](C)N(Cc2ccc(C(=O)O)cc2)C3=O)cc(C)c1Cl`, the Ki [1] is reported as 9.6 nM and the Ki [2] is reported as 54 nM.
`Cc1cc(OCCCc2c3n(c4c(-c5c(C)nn(C)c5C)c(Cl)ccc24)CCN(Cc2cccc(C(=O)O)c2)C3=O)cc(C)c1Cl` was tested, and the Ki [1] was 9.6 nM and the Ki [2] was 52 nM.
Work on `Cc1cc(OCCCc2c3n(c4c(-c5c(C)nn(C)c5C)c(Cl)ccc24)[C@@H](C)CN(Cc2cccc(C(=O)O)c2)C3=O)cc(C)c1Cl` yielded a Ki [1] of 37 nM and a Ki [2] of 170 nM.
With `Cc1cc(OCCCc2c3n(c4c(-c5c(C)nn(C)c5C)c(Cl)ccc24)C[C@H](C)N(Cc2cccc(C(=O)O)c2)C3=O)cc(C)c1Cl` the Ki [1] was 9.9 nM and the Ki [2] was 97 nM.
With `Cc1cc(OCCCc2c3n(c4c(-c5c(C)nn(C)c5C)c(Cl)ccc24)[C@H](C)CN(c2cn(C)c4cc(C(=O)O)ccc24)C3=O)cc(C)c1Cl` the Ki [3] was 0.081 nM, the Ki [4] was 0.38 nM and the Ki [5] was > 40000 nM. The Ki [6] was 500 nM, the GI50 [7] was 290 nM and the GI50 [8] was > 12500 nM.
In the case of `Cc1cc(OCCCc2c3n(c4c(-c5c(C)nn(C)c5C)c(Cl)ccc24)[C@@H](C)CN(Cc2ccc(C(=O)O)cc2)C3=O)cc(C)c1Cl`, the Ki [1] is reported as 35 nM and the Ki [2] is reported as 191 nM.
In the case of `Cc1cc(OCCCc2c3n(c4c(-c5c(C)nn(C)c5C)c(Cl)ccc24)[C@H](C)CN(c2cc(C(=O)O)c4ccn(C)c4c2)C3=O)cc(C)c1Cl`, the Ki [3] is reported as 0.21 nM, the Ki [4] is reported as 1.5 nM and the Ki [5] is reported as > 40000 nM. For the same molecule, the Ki [6] was 770 nM, the GI50 [7] was 820 nM and the GI50 [8] was > 12500 nM.
For `Cc1cc(OCCCc2c3n(c4c(-c5c(C)nn(C)c5C)c(Cl)ccc24)CCC(C)N(Cc2ccc(C(=O)O)cc2)C3=O)cc(C)c1Cl` (configuration not stated), the Ki [1] was 6.6 nM and the Ki [2] was 42 nM.
For `Cc1cc(OCCCc2c3n(c4c(-c5c(C)nn(C)c5C)c(Cl)ccc24)CCN(Cc2ccc(C(=O)O)cc2)C3=O)cc(C)c1Cl`, the Ki [1] was 7.2 nM and the Ki [2] was 51 nM.
With `Cc1cc(OCCCc2c3n(c4c(-c5c(C)nn(C)c5C)c(Cl)ccc24)C[C@@H](C)N(Cc2ccc(C(=O)O)cc2)C3=O)cc(C)c1Cl` the Ki [1] was 1.8 nM and the Ki [2] was 53 nM.
In the case of `Cc1cc(OCCCc2c3n(c4c(-c5c(C)nn(C)c5C)c(Cl)ccc24)CCC(C)N(Cc2cccc(C(=O)O)c2)C3=O)cc(C)c1Cl` (configuration not stated), the Ki [1] is reported as 12 nM and the Ki [2] is reported as > 200 nM.
In the case of `Cc1cc(OCCCc2c3n(c4c(-c5c(C)nn(C)c5C)c(Cl)ccc24)C[C@@H](C)NC3=O)cc(C)c1Cl`, the Ki [1] is reported as 27 nM and the Ki [2] is reported as 151 nM.
`Cc1cc(OCCCc2c3n(c4c(-c5c(C)nn(C)c5C)c(Cl)ccc24)CC(C)CNC3=O)cc(C)c1Cl` (configuration not stated) gave a Ki [1] of 42 nM and a Ki [2] of 150 nM.
For `Cc1cc(OCCCc2c3n(c4c(-c5c(C)nn(C)c5C)c(Cl)ccc24)[C@H](C)CN(c2ccc(C(=O)O)cc2)C3=O)cc(C)c1Cl`, the Ki [3] was 1.3 nM, the Ki [4] was 4.5 nM and the Ki [5] was > 40000 nM. The Ki [6] was 690 nM, the GI50 [7] was 4000 nM and the GI50 [8] was > 12500 nM.
In the case of `Cc1cc(OCCCc2c3n(c4c(-c5c(C)nn(C)c5C)c(Cl)ccc24)C[C@H](C)N(Cc2ccc(C(=O)O)o2)C3=O)cc(C)c1Cl`, the Ki [1] is reported as 8.7 nM and the Ki [2] is reported as 150 nM.
With `Cc1cc(OCCCc2c3n(c4c(-c5c(C)nn(C)c5C)c(Cl)ccc24)[C@H](C)CN(c2cccc(C(=O)O)c2)C3=O)cc(C)c1Cl` the Ki [3] was 1.4 nM, the Ki [4] was 2.6 nM and the Ki [5] was > 40000 nM. The Ki [6] was 990 nM, the GI50 [7] was 4400 nM and the GI50 [8] was > 12500 nM.
For `Cc1cc(OCCCc2c3n(c4c(-c5c(C)nn(C)c5C)c(Cl)ccc24)C[C@@H](C)N(Cc2cccc(C(=O)O)c2)C3=O)cc(C)c1Cl`, the Ki [1] was 2.1 nM and the Ki [2] was 67 nM.
`Cc1cc(OCCCc2c3n(c4c(-c5c(C)nn(C)c5C)c(Cl)ccc24)C[C@@H](C)N(Cc2ccc(C(=O)O)o2)C3=O)cc(C)c1Cl` gave a Ki [1] of 5.9 nM and a Ki [2] of 39 nM.
With `Cc1cc(OCCCc2c3n(c4c(-c5c(C)nn(C)c5C)c(Cl)ccc24)[C@H](C)CN(c2cc(C(=O)O)cc4c2OCO4)C3=O)cc(C)c1Cl` the Ki [3] was 0.42 nM, the Ki [4] was 1.4 nM and the Ki [5] was 25000 nM. For the same molecule, the Ki [6] was 630 nM, the GI50 [7] was 1700 nM and the GI50 [8] was > 12500 nM.
Work on `Cc1cc(OCCCc2c3n(c4c(-c5c(C)nn(C)c5C)c(Cl)ccc24)[C@H](C)CN(c2cccc4c(C(=O)O)cccc24)C3=O)cc(C)c1Cl` yielded a Ki [3] of 0.33 nM, a Ki [4] of 0.77 nM and a Ki [5] of 26000 nM. For the same molecule, the Ki [6] was 380 nM and the GI50 [8] was 2500 nM.
With `Cc1cc(OCCCc2c3n(c4c(-c5c(C)nn(C)c5C)c(Cl)ccc24)C(C)CCNC3=O)cc(C)c1Cl` (configuration not stated) the Ki [1] was 43 nM and the Ki [2] was > 200 nM.
`Cc1cc(OCCCc2c3n(c4c(-c5c(C)nn(C)c5C)c(Cl)ccc24)[C@H](C)CN(Cc2ccc(C(=O)O)o2)C3=O)cc(C)c1Cl` was tested, and the Ki [1] was 1 nM and the Ki [2] was 26 nM.
Work on `Cc1cc(OCCCc2c3n(c4c(-c5c(C)nn(C)c5C)c(Cl)ccc24)[C@H](C)CN(Cc2cccc(C(=O)O)c2)C3=O)cc(C)c1Cl` yielded a Ki [1] of 1.1 nM and a Ki [2] of 26 nM.
`Cc1cc(OCCCc2c3n(c4c(-c5c(C)nn(C)c5C)c(Cl)ccc24)[C@@H](C)CN(Cc2ccc(C(=O)O)o2)C3=O)cc(C)c1Cl` was tested, and the Ki [1] was 22 nM and the Ki [2] was 193 nM.
In the case of `Cc1cc(OCCCc2c3n(c4c(-c5c(C)nn(C)c5C)c(Cl)ccc24)CCC(C)N(Cc2ccc(C(=O)O)o2)C3=O)cc(C)c1Cl` (configuration not stated), the Ki [1] is reported as 8.2 nM and the Ki [2] is reported as 120 nM.
`Cc1cc(OCCCc2c3n(c4c(-c5c(C)nn(C)c5C)c(Cl)ccc24)CCCNC3=O)cc(C)c1Cl` gave a Ki [1] of 12 nM and a Ki [2] of 101 nM.
`Cc1cc(OCCCc2c3n(c4c(-c5c(C)nn(C)c5C)c(Cl)ccc24)CC(C)CN(Cc2ccc(C(=O)O)o2)C3=O)cc(C)c1Cl` (configuration not stated) gave a Ki [1] of 7.6 nM and a Ki [2] of 81 nM.
With `Cc1cc(OCCCc2c3n(c4c(-c5c(C)nn(C)c5C)c(Cl)ccc24)CCN(Cc2ccc(C(=O)O)o2)C3=O)cc(C)c1Cl` the Ki [1] was 5.8 nM and the Ki [2] was 137 nM.
For `Cc1cc(OCCCc2c3n(c4c(-c5c(C)nn(C)c5C)c(Cl)ccc24)[C@H](C)CN(c2cc(C(=O)O)cc4c2ccn4C)C3=O)cc(C)c1Cl`, the Ki [3] was 1.3 nM, the Ki [4] was 6.8 nM and the Ki [5] was > 40000 nM. The Ki [6] was 630 nM, the GI50 [7] was 2100 nM and the GI50 [8] was > 12500 nM.
In the case of `Cc1cc(OCCCc2c3n(c4c(-c5c(C)nn(C)c5C)c(Cl)ccc24)CCNC3=O)cc(C)c1Cl`, the Ki [1] is reported as 35 nM and the Ki [2] is reported as > 200 nM.
With `Cc1cc(OCCCc2c3n(c4c(-c5c(C)nn(C)c5C)c(Cl)ccc24)CC(C)CN(Cc2ccc(C(=O)O)cc2)C3=O)cc(C)c1Cl` (configuration not stated) the Ki [1] was 7.1 nM and the Ki [2] was 22 nM.
`Cc1cc(OCCCc2c3n(c4c(-c5c(C)nn(C)c5C)c(Cl)ccc24)CC(C)CN(Cc2cccc(C(=O)O)c2)C3=O)cc(C)c1Cl` (configuration not stated) gave a Ki [1] of 11 nM and a Ki [2] of 144 nM.
`Cc1cc(OCCCc2c3n(c4c(-c5c(C)nn(C)c5C)c(Cl)ccc24)[C@H](C)CN(Cc2ccc(C(=O)O)cc2)C3=O)cc(C)c1Cl` was tested, and the Ki [1] was 0.77 nM and the Ki [2] was 6.7 nM.
With `Cc1cc(OCCCc2c3n(c4c(-c5c(C)nn(C)c5C)c(Cl)ccc24)C[C@H](C)NC3=O)cc(C)c1Cl` the Ki [1] was 73 nM and the Ki [2] was 145 nM.
